Results from PubChem BioAssay AID266 (DTP/NCI, 2004).
“And” between values parts separate entries of the source, which are not always exact repeats. Equal values may be shown once. Results filed as inconclusive are left out.

System: Nude mice, LX-1 lung xenograft intrarenal, tumor weight T/C
Assay: NCI In Vivo Anticancer Drug Screen. Data for tumor model Human Lung LX-1 Xenograft (intrarenal inoculation) in NU/NU BALB/C (nude) mice
Settings: endpoint: mean tumor weight change, higher = larger tumour
Procedure: The antitumor activity of compounds was measured in mice bearing transplantable tumors. Survival or tumor size were measured and the results are expressed as the measurement made in the treated group (T) divided by the measurement made in the vehicle treated control group (C). The tumor model used in this assay is Human Lung LX-1 Xenograft (intrarenal inoculation) in NU/NU BALB/C (nude) mice

[1] = dose: 150.0 mg/kg/injection, schedule: Q04DX003 (sc), vehicle: saline with Tween-80
[2] = dose: 300.0 mg/kg/injection, schedule: Q04DX003 (sc), vehicle: saline with Tween-80
[3] = dose: 600.0 mg/kg/injection, schedule: Q04DX003 (sc), vehicle: saline with Tween-80
[4] = dose: 1200.0 mg/kg/injection, schedule: Q04DX003 (sc), vehicle: saline with Tween-80
[5] = dose: 300.0 mg/kg/injection, schedule: Q04DX003 (sc), vehicle: saline

## O=C(NO)c1ccccc1
dose: 100.0 mg/kg/injection, schedule: Q01DX010 (sc), vehicle: Klucel (hydroxypropylcellulose) (HPC)
  T/C: 120 % of control
dose: 200.0 mg/kg/injection, schedule: Q01DX010 (sc), vehicle: Klucel (hydroxypropylcellulose) (HPC)
  T/C: 150 % of control

## CC(=O)Nc1cscc1NC(C)=O
[1]
  T/C: 89 % of control
[2]
  T/C: 121 % of control
[3]
  T/C: 111 % of control
[4]
  T/C: 110 % of control

## CC(=O)C(O)N1C(=O)C=CC1=O (stereo not given)
dose: 2.5 mg/kg/injection, schedule: Q01DX010 (sc), vehicle: saline
  T/C: 73 % of control
dose: 5.0 mg/kg/injection, schedule: Q01DX010 (sc), vehicle: saline
  T/C: 92 % of control
dose: 10.0 mg/kg/injection, schedule: Q01DX010 (sc), vehicle: saline
  T/C: 101 % of control

## CCCNC1=C(C)C(=O)C2=C(C1=O)[C@H](COC(N)=O)[C@]1(OC)[C@@H]3N[C@@H]3CN21
dose: 12.0 mg/kg/injection, schedule: Q04DX003 (sc), vehicle: saline + alcohol
  T/C: 52 % of control
dose: 24.0 mg/kg/injection, schedule: Q04DX003 (sc), vehicle: saline + alcohol
  T/C: 8 % of control

## O=C1N=C(Oc2ccccc2)SC1=O
dose: 100.0 mg/kg/injection, schedule: Q04DX003 (sc), vehicle: saline with Tween-80
  T/C: 87 % of control
dose: 200.0 mg/kg/injection, schedule: Q04DX003 (sc), vehicle: saline with Tween-80
  T/C: 93 % of control
dose: 400.0 mg/kg/injection, schedule: Q04DX003 (sc), vehicle: saline with Tween-80
  T/C: 54 % of control

## CN(Cc1cnc2nc(N)nc(N)c2n1)c1ccc(C(=O)N[C@@H](CCC(=O)O)C(=O)O)cc1
dose: 1.0 mg/kg/injection, schedule: Q01DX010 (sc), vehicle: sodium bicarbonate
  T/C: 72 % of control and 84 % of control
dose: 4.0 mg/kg/injection, schedule: Q01DX010 (sc), vehicle: sodium bicarbonate
  T/C: 47 % of control

## Nc1nc(Br)nc2c1ncn2C1CC(O)C(CO)O1 (stereo not given)
dose: 7.5 mg/kg/injection, schedule: Q03DX003 (ip), vehicle: saline
  T/C: 66 % of control
dose: 15.0 mg/kg/injection, schedule: Q03DX003 (ip), vehicle: saline
  T/C: 77 % of control
dose: 30.0 mg/kg/injection, schedule: Q03DX003 (ip), vehicle: saline
  T/C: 72 % of control
dose: 60.0 mg/kg/injection, schedule: Q03DX003 (ip), vehicle: saline
  T/C: 59 % of control
dose: 120.0 mg/kg/injection, schedule: Q03DX003 (ip), vehicle: saline
  T/C: 74 % of control

## CC(C)CCCCCCCCCCCCC(=O)NCC(=O)NC1C(C)OC(Nc2ncnc3nc[nH]c23)C(O)C1O (stereo not given)
dose: 2.0 mg/kg/injection, schedule: Q01DX010 (sc), vehicle: saline with Tween-80
  T/C: 69 % of control
dose: 4.0 mg/kg/injection, schedule: Q01DX010 (sc), vehicle: saline with Tween-80
  T/C: 40 % of control
dose: 8.0 mg/kg/injection, schedule: Q01DX010 (sc), vehicle: saline with Tween-80
  T/C: 32 % of control
dose: 16.0 mg/kg/injection, schedule: Q01DX010 (sc), vehicle: saline with Tween-80
  T/C: 17 % of control

## CN(CCN(C)C(=O)CCOS(C)(=O)=O)C(=O)CCOS(C)(=O)=O
dose: 37.5 mg/kg/injection, schedule: Q04DX003 (sc), vehicle: saline
  T/C: 90 % of control
dose: 75.0 mg/kg/injection, schedule: Q04DX003 (sc), vehicle: saline
  T/C: 91 % of control
dose: 150.0 mg/kg/injection, schedule: Q04DX003 (sc), vehicle: saline
  T/C: 86 % of control
[5]
  T/C: 36 % of control

## NC(N)=NOCC[C@@H](N)C(=O)O
[5]
  T/C: 91 % of control
dose: 600.0 mg/kg/injection, schedule: Q04DX003 (sc), vehicle: saline
  T/C: 91 % of control
dose: 1200.0 mg/kg/injection, schedule: Q04DX003 (sc), vehicle: saline
  T/C: 82 % of control
dose: 2400.0 mg/kg/injection, schedule: Q04DX003 (sc), vehicle: saline
  T/C: 59 % of control

## CN(C)c1nc(N(C)C)nc(N(C)C)n1
dose: 12.5 mg/kg/injection, schedule: Q01DX010 (sc), vehicle: saline with Tween-80
  T/C: 63 % of control
dose: 25.0 mg/kg/injection, schedule: Q01DX010 (sc), vehicle: saline with Tween-80
  T/C: 95 % of control
dose: 60.0 mg/kg/injection, schedule: Q01DX010 (sc), vehicle: saline with Tween-80
  T/C: 51 % of control
dose: 100.0 mg/kg/injection, schedule: Q01DX010 (sc), vehicle: saline with Tween-80
  T/C: 121 % of control
dose: 120.0 mg/kg/injection, schedule: Q01DX010 (sc), vehicle: saline with Tween-80
  T/C: 58 % of control
dose: 200.0 mg/kg/injection, schedule: Q01DX010 (sc), vehicle: saline with Tween-80
  T/C: 74 % of control

## NC(CNC(=O)CBr)C(=O)O (stereo not given)
dose: 75.0 mg/kg/injection, schedule: Q04DX003 (sc), vehicle: water
  T/C: 105 % of control
dose: 150.0 mg/kg/injection, schedule: Q04DX003 (sc), vehicle: water
  T/C: 79 % of control

## CC[C@@]1(O)C[C@H](OC2CC(N(C)C)C(OC3CC(O)C(OC4CCC(=O)C(C)O4)C(C)O3)C(C)O2)c2c(cc3c(c2O)C(=O)c2c(O)cccc2C3=O)[C@H]1C(=O)OC (stereo not given in full)
dose: 1.0 mg/kg/injection, schedule: Q01DX010 (sc), vehicle: water
  T/C: 36 % of control
dose: 1.66 mg/kg/injection, schedule: Q04DX003 (sc), vehicle: water
  T/C: 63 % of control
dose: 2.0 mg/kg/injection, schedule: Q01DX010 (sc), vehicle: water
  T/C: 6 % of control
dose: 3.33 mg/kg/injection, schedule: Q04DX003 (sc), vehicle: water
  T/C: 60 % of control
dose: 6.65 mg/kg/injection, schedule: Q04DX003 (sc), vehicle: water
  T/C: 18 % of control

## CN(C)N=Nc1cccc(C(N)=O)c1
dose: 25.0 mg/kg/injection, schedule: Q04DX003 (sc), vehicle: Klucel (hydroxypropylcellulose) (HPC)
  T/C: 20 % of control
dose: 200.0 mg/kg/injection, schedule: Q04DX003 (sc), vehicle: Klucel (hydroxypropylcellulose) (HPC)
  T/C: -93 % of control

## O=NN(CCCl)C(=O)NCCCl
dose: 4.0 mg/kg/injection, schedule: Q01DX010 (ip), vehicle: saline
  T/C: 32 % of control and 48 % of control
dose: 13.33 mg/kg/injection, schedule: Q04DX003 (ip), vehicle: saline
  T/C: 9 % of control and 10 % of control
dose: 16.0 mg/kg/injection, schedule: Q01DX010 (ip), vehicle: saline
  T/C: -69 % of control and -87 % of control
dose: 26.66 mg/kg/injection, schedule: Q04DX003 (ip), vehicle: saline
  T/C: -21 % of control

## O=C1NC(O)CCN1C1OC(CO)C(O)C1O (stereo not given)
dose: 200.0 mg/kg/injection, schedule: Q01DX010 (sc), vehicle: water
  T/C: 257 % of control
dose: 400.0 mg/kg/injection, schedule: Q01DX010 (sc), vehicle: water
  T/C: 196 % of control
dose: 800.0 mg/kg/injection, schedule: Q01DX010 (sc), vehicle: water
  T/C: 223 % of control
dose: 1600.0 mg/kg/injection, schedule: Q01DX010 (sc), vehicle: water
  T/C: 176 % of control

## CC(CN1CC(=O)NC(=O)C1)N1CC(=O)NC(=O)C1 (stereo not given)
dose: 150.0 mg/kg/injection, schedule: Q04DX003 (sc), vehicle: Klucel (hydroxypropylcellulose) (HPC)
  T/C: 88 % of control
dose: 300.0 mg/kg/injection, schedule: Q04DX003 (sc), vehicle: Klucel (hydroxypropylcellulose) (HPC)
  T/C: 94 % of control
dose: 600.0 mg/kg/injection, schedule: Q04DX003 (sc), vehicle: Klucel (hydroxypropylcellulose) (HPC)
  T/C: 45 % of control

## CSc1cc(=O)n2c3ccccc3c3ccnc1c32
dose: 80.0 mg/kg/injection, schedule: Q04DX003 (sc), vehicle: saline with Tween-80
  T/C: 56 % of control
dose: 160.0 mg/kg/injection, schedule: Q04DX003 (sc), vehicle: saline with Tween-80
  T/C: 64 % of control
dose: 320.0 mg/kg/injection, schedule: Q04DX003 (sc), vehicle: saline with Tween-80
  T/C: 107 % of control

## CN(C)P(=O)(Oc1ccccc1)N(C)C
[1]
  T/C: 99 % of control
[2]
  T/C: 111 % of control
[3]
  T/C: 72 % of control
[4]
  T/C: 83 % of control

## O=CNCO
dose: 250.0 mg/kg/injection, schedule: Q01DX010 (sc), vehicle: water
  T/C: 72 % of control
dose: 500.0 mg/kg/injection, schedule: Q01DX010 (sc), vehicle: water
  T/C: 87 % of control
dose: 1000.0 mg/kg/injection, schedule: Q01DX010 (sc), vehicle: water
  T/C: 100 % of control
dose: 2000.0 mg/kg/injection, schedule: Q01DX010 (sc), vehicle: water
  T/C: 80 % of control

## CC(Oc1ccccc1-c1ccccc1)C(=O)N(C)C (stereo not given)
[3]
  T/C: 100 % of control
[4]
  T/C: 116 % of control
dose: 2400.0 mg/kg/injection, schedule: Q04DX003 (sc), vehicle: saline with Tween-80
  T/C: 107 % of control

## [N-]=[N+]=[N-]
dose: 6.0 mg/kg/injection, schedule: Q04DX003 (ip), vehicle: water
  T/C: 68 % of control
dose: 24.0 mg/kg/injection, schedule: Q04DX003 (ip), vehicle: water
  T/C: 73 % of control
